Measurements published in patent US11634417B2 (Array BioPharma Inc., priority 2019, dated 2023).

How the values were obtained:
full-length SHP2 = molecular target: T1, full-length SHP2 (Homo sapiens, UniProt Q06124); experiment: SHP2 enzymatic assay (fluorescence intensity kinetic assay, DiFMUP hydrolysis); type: biochemical; conditions: 1 nM His6-tagged SHP2(2-527), 1 μM activating peptide, 50 μM DiFMUP; single assay or mean of multiple assays; read-out: Biological Example 1 IC50
T1 construct: 1 nM full-length SHP2 (His6-tagged SHP2(2-527), recombinantly expressed in E. coli and purified in-house); His6; made in house; host or cells: E. coli
T1 sequence (Q06124 2-527): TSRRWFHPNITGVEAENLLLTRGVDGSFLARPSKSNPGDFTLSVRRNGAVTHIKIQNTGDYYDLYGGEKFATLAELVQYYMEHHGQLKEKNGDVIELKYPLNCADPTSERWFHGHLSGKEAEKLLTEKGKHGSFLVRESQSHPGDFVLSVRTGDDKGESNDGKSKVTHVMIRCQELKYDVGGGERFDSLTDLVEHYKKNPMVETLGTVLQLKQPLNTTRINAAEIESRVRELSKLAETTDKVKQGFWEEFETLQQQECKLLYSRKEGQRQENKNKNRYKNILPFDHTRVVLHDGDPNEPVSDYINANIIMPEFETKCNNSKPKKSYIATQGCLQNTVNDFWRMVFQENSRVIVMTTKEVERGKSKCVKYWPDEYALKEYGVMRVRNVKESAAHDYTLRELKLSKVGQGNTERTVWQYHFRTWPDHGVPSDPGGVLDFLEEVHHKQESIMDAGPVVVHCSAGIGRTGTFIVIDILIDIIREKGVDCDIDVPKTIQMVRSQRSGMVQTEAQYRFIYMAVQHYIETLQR
Description: A fluorescence intensity kinetic assay was configured for full-length SHP2 that monitors the amount of 6,8-difluoro-7-hydroxy-4-methylcoumarin (“DiFMU”) formed upon hydrolysis of 6,8-difluoro-4-methylumbelliferyl phosphate (“DiFMUP”) by SHP2. […] Low control wells lacked enzyme. The assays were initiated by the addition of a mixture of SHP2 and the activating peptide, and following a 15 second mix on an orbital shaker, were read in kinetic mode for 15 minutes (30 seconds/cycle) at ambient temperature on a PerkinElmer EnVision microplate reader (kEx=355 nm, kEm=460 nm). Initial velocities (slopes of the tangents at t=0) were estimated from exponential fits to the slightly nonlinear progress curves and then were converted to percent of control (“POC”) using the following equation:
[formula] • Where: xmax Average Uninhibited Controls • Xmin Average Background A 4-parameter logistic model was the fit to the POC data for each compound. From that fit, the IC50 was estimated and is defined as the concentration of compound at which the curve crosses 50 POC.

[1] = system: ERK1/2 (Thr202/Tyr204) phosphorylation in KYSE520 cells; experiment: Cellular Phospho-p44/42 MAPK (Erk1/2) (Thr202/Tyr204) assay, In-Cell Western; type: cell-based; conditions: Homo sapiens, KYSE-520; KYSE520 cells, 1 hour incubation, pERK signal normalized to GAPDH; single assay or mean of multiple assays; read-out: Biological Example 2 IC50
Description: Inhibition of ERK1/2 (Thr202/Tyr204) phosphorylation was determined by the following cellular assay, which comprises incubating cells with a compound for 1 hour and quantifying pERK signal by In-Cell Western on fixed cells and normalizing to GAPDH signal. KYSE520 cells were obtained from DSMZ and grown in RPMI supplemented with 10% fetal bovine serum, penicillin/streptomycin, 2 mM L-alanyl-L-glutamine dipeptide in 0.85% NaCl (Glutamax™), non-essential amino acids, and sodium pyruvate. Cells were plated in 96-well plates at 30,000 cells/well and allowed to attach overnight at 37° C./5% CO2. Cells were treated with compounds prepared as a 10-point, 1:3 dilution series (range: 20 μM-1 nM), with a final DMSO concentration of 0.5%. After 1 hour incubation, cells were fixed in 3.7% formaldehyde in Dulbecco's phosphate-buffered saline (“dPBS”) at room temperature for 20 minutes. Cells were then washed with dPBS and permeabilized in 100% MeOH at room temperature for 10 minutes. Following permeabilization, cells were washed in dPBS and incubated in LI-COR Blocking Buffer (LI-COR Biosciences, Cat #927-40000) for 1 hour or longer. Plates were then incubated with an antibody specific for the MEK-dependent ERK1/2 phosphorylation sites, threonine 202 and tyrosine 204 (Cell Signaling Technologies; Cat #9101), downstream of SHP2 in the MAP kinase signal transduction pathway, as well as GAPDH (Millipore; Cat #MAB374). pErk1/2 (Thr202/Tyr204) antibody was diluted in LI-COR blocking buffer containing 0.05% polysorbate-20 (Tween-20) at 1:250; GAPDH was diluted at 1:2,500. The plates were incubated overnight at 4° C. After washing with PBS/0.05% Tween-20, the cells were incubated with fluorescently-labeled secondary antibodies (Anti-rabbit-Alexa Flour680, Invitrogen Cat #A21109; Anti-mouse-IRDye800CW, Li-cor Bioscieces Cat #926-32210, both at 1:1000 dilution) for 1 hour. Cells were then washed, as above, and analyzed for fluorescence at both 680 nm and 800 nm wavelengths using the Aerius Infrared Imaging System (LI-COR Biosciences, Model 9250). Phosphorylated Erk1/2 ([…]) signal was normalized to GAPDH signal for each well. IC50 values were calculated from the normalized values using a 4-parameter fit in BioAssay software. The reported IC50 in Table 2 may be from a single assay or the mean of multiple assays.

Compound	IC50 (full-length SHP2) [nM]	IC50 [1] [nM]
N[C@@H]1c2ccccc2CC12CCN(c1ncc(Cc3ccccc3)nn1)CC2 [Example 33, (S)-1′-(6-benzyl-1,2,4-triazin-3-yl)-1,3-dihydrospiro[indene-2,4′-piperidin]-1-amine]	98	366
Nc1c(Cl)c(Sc2cnc(N3CCC4(CC3)Cc3ccccc3[C@H]4N)nn2)cc[n+]1[O-] [Example 34, (S)-2-amino-4-((3-(1-amino-1,3-dihydrospiro[indene-2,4′-piperidin]-1′-yl)-1,2,4-triazin-6-yl)thio)-3-chloropyridine 1-oxide]	79	9
Nc1nccc(Sc2cnc(N3CCC4(CC3)Cc3c(Cl)cccc3[C@H]4N)nn2)c1Cl [Example 35, (S)-1′-(6-((2-amino-3-chloropyridin-4-yl)thio)-1,2,4-triazin-3-yl)-4-chloro-1,3-dihydrospiro[indene-2,4′-piperidin]-1-amine]	26	9
CC(C)(C#N)CNc1nccc(Sc2cnc(N3CCC4(CC3)Cc3ccccc3[C@H]4N)nn2)c1Cl [Example 36, (S)-3-((4-((3-(1-amino-1,3-dihydrospiro[indene-2,4′-piperidin]-1′-yl)-1,2,4-triazin-6-yl)thio)-3-chloropyridin-2-yl)amino)-2,2-dimethylpropanenitrile]	110	17
N[C@@H]1c2ccccc2CC12CCN(c1ncc(Sc3cccc4c3CC4)nn1)CC2 [Example 37, (S)-1′-(6-(bicyclo[4.2.0]octa-1(6),2,4-trien-2-ylthio)-1,2,4-triazin-3-yl)-1,3-dihydrospiro[indene-2,4′-piperidin]-1-amine]	11	31
N[C@@H]1c2cccnc2CC12CCN(c1ncc(Sc3cccc4c3CC4)nn1)CC2 [Example 38, (S)-1′-(6-(bicyclo[4.2.0]octa-1(6),2,4-trien-2-ylthio)-1,2,4-triazin-3-yl)-5,7-dihydrospiro[cyclopenta[b]pyridine-6,4′-piperidin]-5-amine]	13	41
CNc1nccc(Sc2cnc(N3CCC4(CC3)Cc3ncccc3[C@H]4N)nn2)c1Cl [Example 39, (S)-1′-(6-((3-chloro-2-(methylamino)pyridin-4-yl)thio)-1,2,4-triazin-3-yl)-5,7-dihydrospiro[cyclopenta[b]pyridine-6,4′-piperidin]-5-amine]	78	11
Cc1ccc2c(c1)[C@@H](N)C1(CCN(c3ncc(Sc4ccnc(N)c4Cl)nn3)CC1)C2 [Example 45, (S)-1′-(6-((2-amino-3-chloropyridin-4-yl)thio)-1,2,4-triazin-3-yl)-6-methyl-1,3-dihydrospiro[indene-2,4′-piperidin]-1-amine]	14	2

The next lines start with results.

IC50 (full-length SHP2) [nM]	Compound	IC50 [1] [nM]
91	Nc1nccc(Sc2cnc(N3CCC4(CC3)Cc3cc(Cl)ccc3[C@@H]4N)nn2)c1Cl [Example 46, (R)-1′-(6-((2-amino-3-chloropyridin-4-yl)thio)-1,2,4-triazin-3-yl)-5-chloro-1,3-dihydrospiro[indene-2,4′-piperidin]-1-amine]	430
38	Cc1ccc2c(c1)[C@H](N)C1(CCN(c3ncc(Sc4ccnc(N)c4Cl)nn3)CC1)C2 [Example 47, (R)-1′-(6-((2-amino-3-chloropyridin-4-yl)thio)-1,2,4-triazin-3-yl)-6-methyl-1,3-dihydrospiro[indene-2,4′-piperidin]-1-amine]	56
30	Cc1cccc2c1CC1(CCN(c3ncc(Sc4ccnc(N)c4Cl)nn3)CC1)[C@@H]2N [Example 48, (S)-1′-(6-((2-amino-3-chloropyridin-4-yl)thio)-1,2,4-triazin-3-yl)-4-methyl-1,3-dihydrospiro[indene-2,4′-piperidin]-1-amine]	5
157	Cc1cccc2c1CC1(CCN(c3ncc(Sc4ccnc(N)c4Cl)nn3)CC1)[C@H]2N [Example 49, (R)-1′-(6-((2-amino-3-chloropyridin-4-yl)thio)-1,2,4-triazin-3-yl)-4-methyl-1,3-dihydrospiro[indene-2,4′-piperidin]-1-amine]	126
44	Cc1nccc(Sc2cnc(N3CCC4(CC3)Cc3ccccc3[C@H]4N)nn2)c1C [Example 50, (S)-1′-(6-((2,3-dimethylpyridin-4-yl)thio)-1,2,4-triazin-3-yl)-1,3-dihydrospiro[indene-2,4′-piperidin]-1-amine]	6
93	N[C@@H]1c2ccccc2CC12CCN(c1ncc(Sc3ccnc(C(F)(F)F)c3Cl)nn1)CC2 [Example 51, (S)-1′-(6-((3-chloro-2-(trifluoromethyl)pyridin-4-yl)thio)-1,2,4-triazin-3-yl)-1,3-dihydrospiro[indene-2,4′-piperidin]-1-amine]	78
27	Nc1nccc(Sc2cnc(N3CCC4(CC3)Cc3ccccc3[C@H]4N)nn2)c1Br [Example 52, (S)-1′-(6-((2-amino-3-bromopyridin-4-yl)thio)-1,2,4-triazin-3-yl)-1,3-dihydrospiro[indene-2,4′-piperidin]-1-amine]	2
46	CNc1nccc(Sc2cnc(N3CCC4(CC3)Cc3ccccc3[C@H]4N)nn2)c1Cl [Example 53, (S)-1′-(6-((3-chloro-2-(methylamino)pyridin-4-yl)thio)-1,2,4-triazin-3-yl)-1,3-dihydrospiro[indene-2,4′-piperidin]-1-amine]	4
62	Cc1nccc(Sc2cnc(N3CCC4(CC3)Cc3ccccc3[C@H]4N)nn2)c1Cl [Example 54, (S)-1′-(6-((3-chloro-2-methylpyridin-4-yl)thio)-1,2,4-triazin-3-yl)-1,3-dihydrospiro[indene-2,4′-piperidin]-1-amine]	7
116	COc1nccc(Sc2cnc(N3CCC4(CC3)Cc3ccccc3[C@H]4N)nn2)c1Cl [Example 55, (S)-1′-(6-((3-chloro-2-methoxypyridin-4-yl)thio)-1,2,4-triazin-3-yl)-1,3-dihydrospiro[indene-2,4′-piperidin]-1-amine]	23
643	Cc1nc2c(s1)[C@H](N)C1(CCN(c3ncc(Sc4ccnc(N)c4Cl)nn3)CC1)C2 [Example 57, (R)-1′-(6-((2-amino-3-chloropyridin-4-yl)thio)-1,2,4-triazin-3-yl)-2-methyl-4,6-dihydrospiro[cyclopenta[d]thiazole-5,4′-piperidin]-6-amine]	139
